According to patent US20040138301A1, “Chemical uncouplers for the treatment of obesity” (priority 2002, published 2004):

System: FSK-4 cells
Test: Assay (IV): Glucose utilisation in FSK-4 cells
Assay type: cell-based
Conditions: FSK-4 cells; for EC50: glucose utilisation, 24 hours incubation, read-out: FSK4 EC50; for Emax: maximal efficacy relative to FCCP, read-out: FSK4 Emax (% of FCCP)

Row | Compound | EC50 [nM] | Emax [%]
1 | N#CC(C#N)=NNc1ccc(OC(F)(F)F)cc1 [Example 27, Carbonylcyanide p-Trifluoromethoxy-Phenylhydrazone, reference compound] | 1000 | 100
2 | Cc1cc(C(C#N)c2ccc(Cl)cc2)c(Cl)cc1NC(=O)c1c(C)c(Br)cc(C(C)(C)C)c1O (stereo not drawn) [Example 56, 3-Bromo-5-Tert-Butyl-N-{5-Chloro-4-[(4-Chloro-Phenyl)-Cyano-Methyl]-2-Methyl-Phenyl}-6-Hydroxy-2-Methyl-Benzamide] | 8000 | 105
3 | N#CC(C#N)=Cc1c(Cl)[nH]c2ccccc12 [Example 34, 2-(2-Chloro-1H-Indol-3-Ylmethylene)-Malononitrile] | 400 | 90
4 | CC(=C(C#N)C#N)c1cc(C(C)(C)C)c(O)c(C(C)(C)C)c1 [Example 75, 2-[1-(3,5-Di-Tert-Butyl-4-Hydroxy-Phenyl)-Ethylidene]-Malononitrile] | 700 | 75
5 | CC(C)(C)c1cc(/C=C(\C#N)c2ccc([N+](=O)[O-])cc2)cc(C(C)(C)C)c1O [Example 77, 3-(3,5-Di-Tert-Butyl-4-Hydroxy-Phenyl)-2-(4-Nitro-Phenyl)-Acrylonitrile] | 1000 | 110
6 | N#CC(C#N)=Cc1c[nH]c2ccc(Cl)cc12 [Example 30, 2-((5-Chloro-1H-Indol-3-Yl)Methylene)Malononitrile] | 50000 | 100

Now those with a lower EC50, led by results:

Row | EC50 [nM] | Compound | Emax [%]
7 | 30 | Cc1c(Br)cc(C(C)(C)C)c(O)c1C(=O)Nc1ccc([N+](=O)[O-])cc1Cl [Example 37, 3-Bromo-5-Tert-Butyl-N-(2-Chloro-4-Nitro-Phenyl)-6-Hydroxy-2-Methyl-Benzamide] | 110
8 | < 30 | Cc1c(Cl)cc(C(C)(C)C)c(O)c1C(=O)Nc1ccc([N+](=O)[O-])cc1C(F)(F)F [Example 50, 3-Tert-Butyl-5-Chloro-2-Hydroxy-6-Methyl-N-(4-Nitro-2-Trifluoromethyl-Phenyl)-Benzamide] | 75
9 | < 30 | Cc1c(Br)cc(C(C)(C)C)c(O)c1C(=O)Nc1ccc([N+](=O)[O-])cc1C(F)(F)F [Example 58, 3-Bromo-5-Tert-Butyl-6-Hydroxy-2-Methyl-N-(4-Nitro-2-Trifluoromethyl-Phenyl)-Benzamide] | 100
